Laboratory results reported in patent publication US7001907B2, “Peptide-containing α-ketoamide cysteine and serine protease inhibitors” (Cephaon, Inc., priority 1997, dated 2006).

Target: T1, Recombinant human calpain I (Homo sapiens, UniProt P07384)
T1 construct: made in house
T1 sequence (P07384 1-714): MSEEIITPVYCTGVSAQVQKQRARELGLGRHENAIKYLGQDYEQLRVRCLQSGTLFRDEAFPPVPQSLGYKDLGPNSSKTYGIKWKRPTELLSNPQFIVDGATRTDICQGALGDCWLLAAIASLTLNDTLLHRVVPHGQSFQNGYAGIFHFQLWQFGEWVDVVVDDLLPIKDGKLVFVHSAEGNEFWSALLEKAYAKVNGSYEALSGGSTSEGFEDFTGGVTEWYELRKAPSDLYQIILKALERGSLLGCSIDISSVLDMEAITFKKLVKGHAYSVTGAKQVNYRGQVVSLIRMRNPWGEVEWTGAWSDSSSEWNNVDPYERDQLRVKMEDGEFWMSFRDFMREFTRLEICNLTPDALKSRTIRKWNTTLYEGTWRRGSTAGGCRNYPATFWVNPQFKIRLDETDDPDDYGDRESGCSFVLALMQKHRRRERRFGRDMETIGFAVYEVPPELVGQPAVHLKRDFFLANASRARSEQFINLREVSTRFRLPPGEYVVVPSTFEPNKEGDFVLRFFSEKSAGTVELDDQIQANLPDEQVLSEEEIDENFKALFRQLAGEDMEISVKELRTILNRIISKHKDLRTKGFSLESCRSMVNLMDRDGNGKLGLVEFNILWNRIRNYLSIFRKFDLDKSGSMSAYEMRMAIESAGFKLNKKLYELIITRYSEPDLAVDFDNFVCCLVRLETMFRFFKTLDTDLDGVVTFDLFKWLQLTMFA
T1 sequence (P04632 1-268 partner): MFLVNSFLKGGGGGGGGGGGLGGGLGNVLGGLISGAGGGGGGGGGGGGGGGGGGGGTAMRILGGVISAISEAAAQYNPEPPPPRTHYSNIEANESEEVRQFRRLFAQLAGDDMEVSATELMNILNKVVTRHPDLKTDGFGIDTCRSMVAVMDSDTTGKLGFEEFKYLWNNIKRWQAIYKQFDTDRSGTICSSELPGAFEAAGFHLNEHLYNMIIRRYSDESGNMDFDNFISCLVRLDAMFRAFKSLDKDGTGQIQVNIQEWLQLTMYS
Assay: Inhibition of cysteine protease activity: calpain I, Succ-Leu-Tyr-MNA substrate hydrolysis
Format: biochemical
Description: To evaluate inhibitory activity, stock solutions (40 times concentrated) of each compound to be tested were prepared in 100% anhydrous DMSO and 5 μl of each inhibitor preparation were aliquoted into each of three wells of a 96-well plate. Recombinant human calpain I, prepared by the method of Meyer et al. (Biochem. J. 1996, 314: 511–519; incorporated herein by reference in its entirety), was diluted into assay buffer (i.e., 50 mM Tris, 50 mM NaCl, 1 mM EDTA, 1 mM EGTA, and 5 mM β-mercaptoethanol, pH 7.5, including 0.2 mM Succ-Leu-Tyr-MNA), and 175 μl was aliquoted into the same wells containing the independent inhibitor stocks as well as to positive control wells containing 5 μl DMSO, but no compound. To start the reaction, 20 μl of 50 mM CaCl2 in assay buffer was added to all wells of the plate, excepting three, which were used as background signal baseline controls. Substrate hydrolysis was monitored every 5 minutes for a total of 30 minutes. Substrate hydrolysis in the absence of inhibitor was linear for up to 15 minutes.
Inhibition of calpain I activity was calculated as the percent decrease in the rate of substrate hydrolysis in the presence of inhibitor relative to the rate in its absence. Comparison between the inhibited and control rates was made within the linear range for substrate hydrolysis. The IC50s of inhibitors (concentration yielding 50% inhibition) were determined from the percent decrease in rates of substrate hydrolysis in the presence of five to seven different concentrations of the test compound. The results were plotted as percent inhibition versus log inhibitor concentration, and the IC50 was calculated by fitting the data to the four-parameter logistic equation shown below using the program GraphPad Prism (GraphPad Software, Inc., San Diego, Calif.). y=d+[(a−d)/(1+(x/c)^b)]
The parameters a, b, c, and d are defined as follows: a is % inhibition in the absence of inhibitor, b is the slope, c is the IC50, and d is the % inhibition at an infinite concentration of inhibitor.

[1] = Table 5, achiral P2 mimetic α-ketoamides

Compound	IC50 (Table 4, α-ketoamides)	other results
CS(=O)(=O)N[C@H](COCc1ccccc1)C(=O)N[C@@H](Cc1ccccc1)C(=O)C(=O)NCCS(=O)(=O)Nc1ccc(C(F)(F)F)cc1 [Compound 61]	32 nM	–
CS(=O)(=O)NC(C(=O)NC(Cc1ccccc1)C(=O)C(=O)NCCNS(=O)(=O)c1ccccc1)c1ccccc1 (mixture of isomers) [Compound 69]	80 nM	–
CN(C)Cc1cccc(-c2ccc(S(=O)(=O)NCCNC(=O)C(=O)[C@H](Cc3ccccc3)NC(=O)[C@@H](COCc3ccccc3)NS(C)(=O)=O)s2)c1 [Compound 54]	12 nM	–
Cn1nc(-c2ccc(S(=O)(=O)NCCNC(=O)C(=O)C(Cc3ccccc3)NC(=O)C(COCc3ccccc3)NS(C)(=O)=O)s2)cc1C(F)(F)F (mixture of isomers) [Compound 34]	–	IC50 (Table 2, linear α-ketoamides): 25 nM
Cc1ccc(Cl)c(C(=O)N[C@@H](Cc2ccccc2)C(=O)C(=O)NCCNS(=O)(=O)c2ccc(-c3ccccn3)s2)c1Cl [Compound 119]	–	IC50 [1]: 61 nM
CS(=O)(=O)N[C@H](COCc1ccccc1)C(=O)N[C@@H](Cc1ccccc1)C(=O)C(=O)NCCNS(=O)(=O)c1cc2ccccc2s1 [Compound 87]	23 nM	–
N#Cc1cccc(-c2ccc(S(=O)(=O)NCCNC(=O)C(=O)[C@H](Cc3ccccc3)NC(=O)c3c(F)cccc3F)s2)c1 [Compound 135]	–	IC50 [1]: 22 nM
CSc1nccc(-c2ccc(S(=O)(=O)NCCNC(=O)C(=O)[C@H](Cc3ccccc3)NC(=O)[C@@H](COCc3ccccc3)NS(C)(=O)=O)s2)n1 [Compound 33]	–	IC50 (Table 2, linear α-ketoamides): 17 nM
CC(C)(C)OC(=O)NC1CCCC(NC(=O)C(=O)[C@H](Cc2ccccc2)NC(=O)[C@@H](COCc2ccccc2)NS(C)(=O)=O)C1 (stereo partly drawn) [Compound 55]	42 nM	–
CC(C)C(=O)N[C@@H](Cc1ccccc1)C(=O)C(=O)NCCNS(=O)(=O)c1ccc(-c2ccccn2)s1 [Compound 143]	–	IC50 [1]: 1500 nM
CS(=O)(=O)N[C@H](COCc1ccccc1)C(=O)N[C@@H](Cc1ccccc1)C(=O)C(=O)NCCNS(=O)(=O)c1ccc(-c2ccccc2)s1 [Compound 29]	–	IC50 (Table 2, linear α-ketoamides): 14 nM
CS(=O)(=O)N[C@H](COCc1ccccc1)C(=O)N[C@@H](Cc1ccccc1)C(=O)C(=O)NCCNS(=O)(=O)c1ccc(CN2CCOCC2)cc1 [Compound 57]	18 nM	–
C[C@@H](CNS(=O)(=O)c1ccccc1)NC(=O)C(=O)[C@H](Cc1ccccc1)NC(=O)[C@@H](COCc1ccccc1)NS(C)(=O)=O [Compound 49]	–	IC50 (Table 3, branched-chain α-ketoamides): 32 nM
CN(C)c1cccc2c(S(=O)(=O)NCCNC(=O)C(=O)[C@H](Cc3ccccc3)NC(=O)[C@@H](COCc3ccccc3)NS(C)(=O)=O)cccc12 [Compound 86]	49 nM	–
CS(=O)(=O)N[C@H](COCc1ccccc1)C(=O)N[C@@H](Cc1ccccc1)C(=O)C(=O)NCCNS(=O)(=O)c1cccnc1 [Compound 31]	–	IC50 (Table 2, linear α-ketoamides): 29 nM
N#Cc1cccc(-c2ccc(S(=O)(=O)NCCNC(=O)C(=O)[C@H](Cc3ccccc3)NC(=O)c3c(Cl)cccc3Cl)s2)c1 [Compound 133]	–	IC50 [1]: 11 nM
CS(=O)(=O)NC(COCc1ccccc1)C(=O)NC(Cc1ccccc1)C(=O)C(=O)NCCNS(=O)(=O)c1ccc(-c2cccc(F)c2)s1 (mixture of isomers) [Compound 72]	18 nM	–

Compound	IC50 (Table 4, α-ketoamides)	other results
C[C@H](OCc1ccccc1)[C@@H](NS(C)(=O)=O)C(=O)N[C@@H](Cc1ccccc1)C(=O)C(=O)NCCNS(=O)(=O)c1ccc(-c2ccccn2)s1 [Compound 66]	12 nM	–
CS(=O)(=O)N[C@H](COCc1ccccc1)C(=O)N[C@@H](Cc1ccccc1)C(=O)C(=O)NCCCS(=O)(=O)Nc1ccc(C(F)(F)F)cc1 [Compound 63]	23 nM	–
Cc1cccc(C)c1C(=O)N[C@@H](Cc1ccccc1)C(=O)C(=O)NCCNS(=O)(=O)c1ccc(-c2ccccn2)s1 [Compound 127]	–	IC50 [1]: 178 nM
CS(=O)(=O)NC(COCc1ccccc1)C(=O)NC(Cc1ccccc1)C(=O)C(=O)NCCNS(=O)(=O)c1ccc(-c2ccccc2)s1 (mixture of isomers) [Compound 42]	–	IC50 (Table 2, linear α-ketoamides): 14 nM
CS(=O)(=O)N[C@H](Cc1ccccc1)C(=O)N[C@@H](Cc1ccccc1)C(=O)C(=O)NCCNS(=O)(=O)c1ccc(-c2ccccn2)s1 [Compound 71]	18 nM	–
O=C(NCCNS(=O)(=O)c1ccccc1)C(=O)[C@H](Cc1ccccc1)NC(=O)[C@H](Cc1ccccc1)NS(=O)(=O)c1ccccc1 [Compound 30]	–	Percent inhibition @ 10 μM (Calpain) (Table 2, 10 μM compound, values in brackets marked **): (97%)
CS(=O)(=O)NC(C(=O)NC(Cc1ccccc1)C(=O)C(=O)NCCNS(=O)(=O)c1ccc(-c2ccccn2)s1)c1ccccc1 (mixture of isomers) [Compound 68]	21 nM	–
CN(C)Cc1ccc(S(=O)(=O)NCCNC(=O)C(=O)[C@H](Cc2ccccc2)NC(=O)[C@@H](COCc2ccccc2)NS(C)(=O)=O)cc1 [Compound 45]	–	IC50 (Table 2, linear α-ketoamides): 64 nM
CC(C)C[C@H](NC(=O)OCc1ccccc1)C(=O)N[C@@H](CC(C)C)C(=O)N[C@@H](Cc1ccccc1)C(=O)C(=O)NCCNS(=O)(=O)c1ccc(-c2ccccn2)s1 [Compound 88]	33 nM	–
O=C(NCCNS(=O)(=O)c1ccc(-c2ccccn2)s1)C(=O)[C@H](Cc1ccccc1)NC(=O)c1cc(C(F)(F)F)cc(C(F)(F)F)c1 [Compound 126]	–	IC50 [1]: 600 nM
O=C(NCCNS(=O)(=O)c1ccc(-c2ccon2)s1)C(=O)[C@H](Cc1ccccc1)NC(=O)c1c(F)cccc1Cl [Compound 140]	–	IC50 [1]: 58 nM
CS(=O)(=O)N[C@H](COCc1ccccc1)C(=O)N[C@@H](Cc1ccccc1)C(=O)C(=O)NCCCS(=O)(=O)Nc1ccccc1 [Compound 62]	18 nM	–
CC(C)c1ccccc1C(=O)N[C@@H](Cc1ccccc1)C(=O)C(=O)NCCNS(=O)(=O)c1ccc(-c2ccon2)s1 [Compound 139]	–	IC50 [1]: 168 nM
CS(=O)(=O)N[C@H](COCc1ccccc1)C(=O)N[C@@H](Cc1ccccc1)C(=O)C(=O)NCCNS(=O)(=O)c1cccc(-c2csc(N)n2)c1 [Compound 51]	29 nM	–
CS(=O)(=O)NC(COCc1ccccc1)C(=O)NC(Cc1ccccc1)C(=O)C(=O)NCCNS(=O)(=O)c1ccc(-c2cccc([N+](=O)[O-])c2)s1 (mixture of isomers) [Compound 74]	15 nM	–
CS(=O)(=O)N[C@H](COCc1ccccc1)C(=O)N[C@@H](Cc1ccccc1)C(=O)C(=O)NCCNS(=O)(=O)c1ccc(-c2ccc(C=O)cc2)s1 [Compound 90]	17 nM	–

More lines, main results first:

IC50 (Table 4, α-ketoamides)	Compound	other results
24 nM	CS(=O)(=O)N[C@H](COCc1ccccc1)C(=O)N[C@@H](Cc1ccccc1)C(=O)C(=O)NCCNS(=O)(=O)c1ccc(-c2cccc(CN3CCCC3)c2)s1 [Compound 103]	–
100 nM	CS(=O)(=O)N[C@@H](COCc1ccccc1)C(=O)N[C@@H](Cc1ccccc1)C(=O)C(=O)NCCNS(=O)(=O)c1ccccc1 [Compound 116]	–
22 nM	CCN(CC)Cc1cccc(-c2ccc(S(=O)(=O)NCCNC(=O)C(=O)[C@H](Cc3ccccc3)NC(=O)[C@@H](COCc3ccccc3)NS(C)(=O)=O)s2)c1 [Compound 101]	–
23 nM	CS(=O)(=O)NC(COCc1ccccc1)C(=O)NC(Cc1ccccc1)C(=O)C(=O)NC1CCN(S(=O)(=O)c2ccc(-c3ccccn3)s2)CC1 (mixture of isomers) [Compound 107]	–
16 nM	CS(=O)(=O)N[C@H](COCc1ccccc1)C(=O)N[C@@H](Cc1ccccc1)C(=O)C(=O)NCCNS(=O)(=O)c1ccc(-c2cccc(CN3CCC(=O)CC3)c2)s1 [Compound 115]	–
73 nM	CS(=O)(=O)NC(COCc1ccccc1)C(=O)NC(Cc1ccccc1)C(=O)C(=O)NCCNS(=O)(=O)c1ccc(CN2CC=CC2)cc1 (mixture of isomers) [Compound 111]	–
